Experimental data as given in patent US20260226071A1, “2, 4-DIANILINOPYRIMIDINE-BASED AURORA-A KINASE SELECTIVE DEGRADATION INDUCING COMPOUNDS” (UPPTHERA, INC., priority 2023, published 2026).

Target: T1, Aurora kinase A (AURKA) (Homo sapiens, UniProt O14965)
T1 construct: endogenous in cells; host or cells: HeLa LgBit (AURKA-HiBit KI), CRISPR/Cas9 knock-in at the endogenous AURKA locus
T1 sequence (O14965 1-403): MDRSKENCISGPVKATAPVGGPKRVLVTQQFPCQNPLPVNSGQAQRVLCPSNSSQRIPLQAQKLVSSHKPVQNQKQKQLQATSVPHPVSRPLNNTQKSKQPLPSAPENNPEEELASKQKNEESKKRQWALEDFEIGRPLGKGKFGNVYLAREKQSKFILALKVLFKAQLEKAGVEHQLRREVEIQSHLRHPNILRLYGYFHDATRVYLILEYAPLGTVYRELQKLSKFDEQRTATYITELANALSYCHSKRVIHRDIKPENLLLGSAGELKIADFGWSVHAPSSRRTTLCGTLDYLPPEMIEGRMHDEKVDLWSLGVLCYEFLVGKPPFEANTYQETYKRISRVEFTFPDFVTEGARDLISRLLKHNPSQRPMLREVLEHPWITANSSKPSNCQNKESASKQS
Experiment: Luciferase assay for AURKA in HeLa LgBit (AURKA-HiBit KI) cell line
Format: cell-based
Details: HeLa LgBit (AURKA-HiBit KI) cells, measured after 12 hours
Source text: HeLa cell lines that stably express LgBit were constructed via LgBit vector transfection. Then, donor DNA and guide RNA for insertion of HiBit amino acid sequence at C-terminus of inherent Aurora kinase A (AURKA) genes were designed and constructed. Thereafter, they were transfected into the cell lines with CRISPR/Cas9 expression vector system. HiBit gene knock-in single cells were selected, passaged and used for the experiments.
For cell culture, DMEM (Gibco, Cat. No. 11995-065; Lot. No. 2562497), FBS (Gibco, Cat. No. 16000-044; Lot. No. 2511328P), Penicillin/Streptomycin (PS) (Gibco, Cat. No. 15140-122; Lot. No. 2585636), 90 mm^2 cell culture dish (SPL, Cat. No. 20100), 96-well white plate, PBS pH 7.4 (Gibco, […]), TrypLE™ Express (Gibco, Cat. No. 12605-010; Lot. No. 2522525), counting chamber (hematocytometer) (Hirschmann, Cat. No. 8100204; Lot. No. 8021087) and 0.4% Trypan Blue solution (DYNEBIO, Cat. No. CBT3710; Lot. No. 20231017) were used. Cells were cultured in DMEM supplemented with 10% FBS and 1% PS and incubated in CO2 incubator (Thermo, Cat. No. 4111) at 37° C., 5% CO2 condition.
HeLa LgBit (AURKA-HiBit KI) cell lines were cultured in 90 mm^2 cell culture dish, and 3×10^4 cells in […] of total medium volume were seeded and incubated for 18 hours in CO2 incubator. Then, Eudurazine (Promega, Cat. No. N247B; Lot. No. 495218) was added to each well to make up 1% of the total volume, followed by further incubation for 2 hours in CO2 incubator.
The present compounds were fully dissolved in DMSO (Sigma-Aldrich Cat. No. D2438, Lot. No. RNBL7287) and 10 nM or 100 nM of total concentration were used in the experiment. After adding the compounds in each well of 96-well white plate, the plate was placed in the plate reader (BMG Labtech, CLARIOstar Plus) for real-time analysis. The wavelength for analysis was set to […], and the luminescence value was measured after 12 hours. The luminescence value was analyzed through an Excel program.

Structure (SMILES) | luminescence value (Level) (10 nM compound) | luminescence value (Level) (100 nM compound)
O=C1CCC(c2cccc(N3CCC(CN4CCN(C(=O)Cc5ccc(Nc6ncc(F)c(Nc7ccc(C(=O)Nc8ccccc8Cl)cc7)n6)cc5)CC4)CC3)c2)C(=O)N1 (centres unmarked) [Compound 2, N-(2-chlorophenyl)-4-((2-((4-(2-(4-((1-(3-(2,6-dioxopiperidin-3-yl)phenyl)piperidin-4-yl)methyl)piperazin-1-yl)-2-oxoethyl)phenyl)amino)-5-fluoropyrimidin-4-yl)amino)benzamide] | C (C is 0.5 to 0.7) | B (B is 0.2 to 0.4)
CN(CC1CCN(c2ccc(C3CCC(=O)NC3=O)cc2)CC1)[C@@H]1CCC[C@@H]1NC(=O)c1ccc(Nc2ncc(F)c(Nc3ccc(C(=O)Nc4ccccc4Cl)cc3)n2)cc1 (stereo partly drawn) [Compound 10, N-(2-chlorophenyl)-4-((2-((4-(((1S,2R)-2-(((1-(4-(2,6-dioxopiperidin-3-yl)phenyl)piperidin-4-yl)methyl)(methyl)amino)cyclopentyl)carbamoyl)phenyl)amino)-5-fluoropyrimidin-4-yl)amino)benzamide] | D (D is 0.7 to 0.8) | C (C is 0.4 to 0.6)
CN(CC1CCN(c2ccc(C3CCC(=O)NC3=O)cc2)CC1)C1CC(NC(=O)c2ccc(Nc3ncc(F)c(Nc4ccc(C(=O)Nc5ccccc5Cl)cc4)n3)cc2)C1 (centres unmarked) [Compound 11, N-(2-chlorophenyl)-4-((2-((4-((3-(((1-(4-(2,6-dioxopiperidin-3-yl)phenyl)piperidin-4-yl)methyl)(methyl)amino)cyclobutyl)carbamoyl)phenyl)amino)-5-fluoropyrimidin-4-yl)amino)benzamide] | D (D is 0.7 to 0.8) | B (B is 0.2 to 0.4)
O=C1CCC(c2ccc(C#CC3CCN(C4CCN(C(=O)c5ccc(Nc6ncc(F)c(Nc7ccc(C(=O)Nc8ccccc8Cl)cc7)n6)cc5)CC4)CC3)cc2)C(=O)N1 (centres unmarked) [Compound 14, N-(2-chlorophenyl)-4-((2-((4-(4-((4-(2,6-dioxopiperidin-3-yl)phenyl)ethynyl)-[1,4′-bipiperidine]-1′-carbonyl)phenyl)amino)-5-fluoropyrimidin-4-yl)amino)benzamide] | D (D is 0.7 to 0.8) | C (C is 0.4 to 0.6)
O=C1CCC(c2ccc(C#CC3CCN(C4CCN(C(=O)Cc5ccc(Nc6ncc(F)c(Nc7ccc(C(=O)Nc8ccccc8Cl)cc7)n6)cc5)CC4)CC3)cc2)C(=O)N1 (centres unmarked) [Compound 15, N-(2-chlorophenyl)-4-((2-((4-(2-(4-((4-(2,6-dioxopiperidin-3-yl)phenyl)ethynyl)-[1,4′-bipiperidin]-1′-yl)-2-oxoethyl)phenyl)amino)-5-fluoropyrimidin-4-yl)amino)benzamide] | D (D is 0.7 to 0.8) | B (B is 0.2 to 0.4)
O=C1CCC(c2ccc(N3CCC(CCN4CCC(NC(=O)c5ccc(Nc6ncc(F)c(Nc7ccc(C(=O)Nc8ccccc8Cl)cc7)n6)cc5)CC4)CC3)cc2)C(=O)N1 (centres unmarked) [Compound 19, N-(2-chlorophenyl)-4-((2-((4-((1-(2-(1-(4-(2,6-dioxopiperidin-3-yl)phenyl)piperidin-4-yl)ethyl)piperidin-4-yl)carbamoyl)phenyl)amino)-5-fluoropyrimidin-4-yl)amino) benzamide] | C (C is 0.5 to 0.7) | B (B is 0.2 to 0.4)
O=C1CCC(c2ccc(C#CC3CCN(C4CCN(C(=O)c5ccc(Nc6ncc(F)c(Nc7ccc(C(=O)Nc8ccccc8Cl)cc7)n6)cc5)CC4)CC3)cn2)C(=O)N1 (centres unmarked) [Compound 20, N-(2-chlorophenyl)-4-((2-((4-(4-((6-(2,6-dioxopiperidin-3-yl)pyridin-3-yl)ethynyl)-[1,4′-bipiperidine]-1′-carbonyl)phenyl)amino)-5-fluoropyrimidin-4-yl)amino)benzamide] | D (D is 0.7 to 0.8) | C (C is 0.4 to 0.6)
O=C1CCC(Nc2cccc(N3CCC(CN4CCN(C(=O)Cc5ccc(Nc6ncc(F)c(Nc7ccc(C(=O)Nc8ccccc8Cl)cc7)n6)cc5)CC4)CC3)c2)C(=O)N1 (centres unmarked) [Compound 25, N-(2-chlorophenyl)-4-((2-((4-(2-(4-((1-(3-((2,6-dioxopiperidin-3-yl)amino)phenyl)piperidin-4-yl)methyl)piperazin-1-yl)-2-oxoethyl)phenyl)amino)-5-fluoropyrimidin-4-yl)amino)benzamide] | C (C is 0.5 to 0.7) | B (B is 0.2 to 0.4)
O=C1CCC(Nc2ccc(N3C[C@@H]4[C@@H](CN5CCC(NC(=O)c6ccc(Nc7ncc(F)c(Nc8ccc(C(=O)Nc9ccccc9Cl)cc8)n7)cc6)CC5)[C@@H]4C3)cc2)C(=O)N1 (stereo partly drawn) [Compound 27, N-(2-chlorophenyl)-4-((2-((4-((1-(((1R,5S,6s)-3-(4-((2,6-dioxopiperidin-3-yl)amino)phenyl)-3-azabicyclo[3.1.0]hexan-6-yl)methyl)piperidin-4-yl)carbamoyl)phenyl)amino)-5-fluoropyrimidin-4-yl)amino)benzamide] | B (B is 0.3 to 0.5) | B (B is 0.2 to 0.4)
O=C1CCC(Nc2ccc(N3CC4CC(C3)N(C3CCN(C(=O)c5ccc(Nc6ncc(F)c(Nc7ccc(C(=O)Nc8ccccc8Cl)cc7)n6)cc5)CC3)C4)cc2)C(=O)N1 (centres unmarked) [Compound 28, N-(2-chlorophenyl)-4-((2-((4-(4-(3-(4-((2,6-dioxopiperidin-3-yl)amino)phenyl)-3,6-diazabicyclo[3.2.1]octan-6-yl)piperidine-1-carbonyl)phenyl)amino)-5-fluoropyrimidin-4-yl)amino)benzamide] | C (C is 0.5 to 0.7) | B (B is 0.2 to 0.4)
O=C1CCC(Nc2ccc(N3CC4CC(C3)N(CC3CCN(C(=O)c5ccc(Nc6ncc(F)c(Nc7ccc(C(=O)Nc8ccccc8Cl)cc7)n6)cc5)CC3)C4)cc2)C(=O)N1 (centres unmarked) [Compound 29, N-(2-chlorophenyl)-4-((2-((4-(4-((3-(4-((2,6-dioxopiperidin-3-yl)amino)phenyl)-3,6-diazabicyclo[3.2.1]octan-6-yl)methyl)piperidine-1-carbonyl)phenyl)amino)-5-fluoropyrimidin-4-yl)amino)benzamide] | C (C is 0.5 to 0.7) | B (B is 0.2 to 0.4)
O=C1CCC(Nc2ccc(N3CCC(CN4CC5(C4)CN(C(=O)c4ccc(Nc6ncc(F)c(Nc7ccc(C(=O)Nc8ccccc8Cl)cc7)n6)cc4)C5)CC3)cc2)C(=O)N1 (centres unmarked) [Compound 31, N-(2-chlorophenyl)-4-((2-((4-(6-((1-(4-((2,6-dioxopiperidin-3-yl)amino)phenyl)piperidin-4-yl)methyl)-2,6-diazaspiro[3.3]heptane-2-carbonyl)phenyl)amino)-5-fluoropyrimidin-4-yl)amino)benzamide] | C (C is 0.5 to 0.7) | B (B is 0.2 to 0.4)
O=C1CCC(Nc2ccc(N3CCC(CN4CCC5(CCN(C(=O)c6ccc(Nc7ncc(F)c(Nc8ccc(C(=O)Nc9ccccc9Cl)cc8)n7)cc6)C5)C4)CC3)cc2)C(=O)N1 (centres unmarked) [Compound 32, N-(2-chlorophenyl)-4-((2-((4-(7-((1-(4-((2,6-dioxopiperidin-3-yl)amino)phenyl)piperidin-4-yl)methyl)-2,7-diazaspiro[4.4]nonane-2-carbonyl)phenyl)amino)-5-fluoropyrimidin-4-yl)amino)benzamide] | B (B is 0.3 to 0.5) | B (B is 0.2 to 0.4)
